# From the supplement of paper PMC11208160
# Assay: recombinant barcode read abundance after kanamycin selection (control-corrected) (log10(CPM+1)); higher = more efficient recombination; sequences stand for … in AGTGCAGAGAAAATCGGCCAGTTTTCTCTGCCTGCAGTCCGCATGCCGT…AGATTTATGCAGCGGACTGCCTTTCTCCCAAAGTGATAAACCGGACAGTATCATGGACCGGTTTTCCCGGTAATCCGTATTTGCAAGGTTGGTTTCACT; site = the 11-nt target
# In short: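 Values are log10(CPM+1) from a pooled E. coli screen of targets paired with IS621 bridge RNA target-binding loops. Recombination efficiency here means counts per million of recombinant-junction barcodes, averaged and control-corrected. Plates were chloramphenicol/ampicillin LB agar for the control and chloramphenicol/ampicillin/kanamycin with 0.1 mM IPTG, two replicates each.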
# 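Further: IS621 recombinase and bridge RNA in Escherichia coli cells.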
row,Sequence,recombinant barcode read abundance (log10)
1,TCATTAGCTTGGGTTCTAACCTGTTGCCG (site GGGCATCCTAT),0.0935
2,TCATTAGCTTGGGTTCTAACCTGTTGCCG (site TCATTAGCTCG),0.315
3,TCATTCGCTTGGGTTCTAACCTGTTGCCT (site TCATTCGCTAG),0.857
4,TCATTCGCTTGGGTTCTAACCTGTTGCCT (site TCCTTAGCTAG),0.186
5,TCCAAACCTTGGGTTCTAACCTGTTGCGG (site TCCAAACCTCC),2.04
6,TCCAAACCTTGGGTTCTAACCTGTTGCGG (site TCCAACACTCC),0.00629
7,TCCAGTCCTTGGGTTCTAACCTGTTGCTA (site TCCAGTCCTTA),0.688
8,TCCAGTCCTTGGGTTCTAACCTGTTGCTA (site TCCATCCCTTA),0.0632
9,TCCCAAACTTGGGTTCTAACCTGTTGCAC (site CTAACTGCTAC),0.0667
10,TCCCAAACTTGGGTTCTAACCTGTTGCAC (site TCCCAAACTGT),0.657
11,TCCCACACTTGGGTTCTAACCTGTTGCCA (site ACCCACACTCG),0.129
12,TCCCACACTTGGGTTCTAACCTGTTGCCA (site TCCCACACTTG),1.33
13,TCCCAGCCTTGGGTTCTAACCTGTTGCTG (site TCCCAGCCTCA),0.0849
14,TCCCAGCCTTGGGTTCTAACCTGTTGCTG (site TCCCATCCTAA),0.274
15,TCCCATCCTTGGGTTCTAACCTGTTGCTT (site TCCCAGCCTCA),0.524
16,TCCCATCCTTGGGTTCTAACCTGTTGCTT (site TCCCATCCTAA),0.114
17,TCCCATGCTTGGGTTCTAACCTGTTGCCT (site TCCCATACTAG),0.19
18,TCCCATGCTTGGGTTCTAACCTGTTGCCT (site TCCCATCCTAG),0.151
19,TCCCATGCTTGGGTTCTAACCTGTTGCCT (site TCCCATGCTAG),1.17
20,TCCCATGCTTGGGTTCTAACCTGTTGCCT (site TCCCATTCTAG),0.0569
21,TCCCCGACTTGGGTTCTAACCTGTTGCCG (site TCCCCGACTCG),1.03
22,TCCCCGACTTGGGTTCTAACCTGTTGCCG (site TCGCCTACTCG),0.03

row,Sequence,recombinant barcode read abundance (log10)
1,TCCCCGGCTTGGGTTCTAACCTGTTGCGG (site CAAAACTCTAA),0.262
2,TCCCCGGCTTGGGTTCTAACCTGTTGCGG (site TCCCCGGCTCC),1.48
3,TCCCGATCTTGGGTTCTAACCTGTTGCCT (site TCCCGAACTAG),0.0997
4,TCCCGATCTTGGGTTCTAACCTGTTGCCT (site TCCCGACCTAG),0.521
5,TCCCGATCTTGGGTTCTAACCTGTTGCCT (site TCCCGAGCTAG),0.065
6,TCCCGATCTTGGGTTCTAACCTGTTGCCT (site TCCCGATCTAG),0.502
7,TCCCTTCCTTGGGTTCTAACCTGTTGCCT (site TCCCGTCCTAG),0.0443
8,TCCCTTCCTTGGGTTCTAACCTGTTGCCT (site TCCCTTCCTAG),0.365
9,TCCGAAGCTTGGGTTCTAACCTGTTGCCT (site GACGAAGCTAG),0.444
10,TCCGAAGCTTGGGTTCTAACCTGTTGCCT (site TCCGAAGCTAG),0.487
11,TCCGACTCTTGGGTTCTAACCTGTTGCCG (site TCCGACTCTCG),1.55
12,TCCGACTCTTGGGTTCTAACCTGTTGCCG (site TCCTACTCTCG),0.122
13,TCCGAGACTTGGGTTCTAACCTGTTGCCA (site TCCGAGACTAG),0.598
14,TCCGAGACTTGGGTTCTAACCTGTTGCCA (site TCCGAGACTCG),0.208
15,TCCGAGACTTGGGTTCTAACCTGTTGCCA (site TCCGAGACTGG),0.176
16,TCCGAGACTTGGGTTCTAACCTGTTGCCA (site TCCGAGACTTG),1.34
17,TCCGAGACTTGGGTTCTAACCTGTTGCCC (site TCCGAGACTAG),0.146
18,TCCGAGACTTGGGTTCTAACCTGTTGCCC (site TCCGAGACTCG),0.338
19,TCCGAGACTTGGGTTCTAACCTGTTGCCC (site TCCGAGACTGG),1.08
20,TCCGAGACTTGGGTTCTAACCTGTTGCCC (site TCCGAGACTTG),0.0317
21,TCCGCGACTTGGGTTCTAACCTGTTGCCT (site TCAGCGACTAG),0.0444
22,TCCGCGACTTGGGTTCTAACCTGTTGCCT (site TCCGCGACTAG),0.159

row,Sequence,recombinant barcode read abundance (log10)
1,TCCGCGACTTGGGTTCTAACCTGTTGCCT (site TCGGCGACTAG),0.453
2,TCCGCGACTTGGGTTCTAACCTGTTGCCT (site TCTGCGACTAG),0.17
3,TCCGCTGCTTGGGTTCTAACCTGTTGCCT (site TCCGCTACTAG),0.151
4,TCCGCTGCTTGGGTTCTAACCTGTTGCCT (site TCCGCTCCTAG),0.0574
5,TCCGCTGCTTGGGTTCTAACCTGTTGCCT (site TCCGCTGCTAG),0.283
6,TCCGCTGCTTGGGTTCTAACCTGTTGCCT (site TCCGCTTCTAG),0.00679
7,TCCGGTACTTGGGTTCTAACCTGTTGCAT (site TCCAGTACTAT),0.369
8,TCCGGTACTTGGGTTCTAACCTGTTGCAT (site TCCCGTACTAT),0.0823
9,TCCGGTACTTGGGTTCTAACCTGTTGCAT (site TCCGGTACTAT),0.849
10,TCCGGTACTTGGGTTCTAACCTGTTGCAT (site TCCTGTACTAT),0.114
11,TCCGTCCCTTGGGTTCTAACCTGTTGCTG (site TCCGTACCTCG),0.0427
12,TCCGTCCCTTGGGTTCTAACCTGTTGCTG (site TCCGTCCCTCA),1.57
13,TCCGTGCCTTGGGTTCTAACCTGTTGCCT (site TCCGTGACTAG),0.00917
14,TCCGTGCCTTGGGTTCTAACCTGTTGCCT (site TCCGTGCCTAG),0.598
15,TCCGTGCCTTGGGTTCTAACCTGTTGCCT (site TCCGTGGCTAG),0.304
16,TCCGTGCCTTGGGTTCTAACCTGTTGCCT (site TCCGTGTCTAG),0.17
17,TCCGTTACTTGGGTTCTAACCTGTTGCCG (site CAGCAGCCTAA),0.086
18,TCCGTTACTTGGGTTCTAACCTGTTGCCG (site TCCGTTACTCG),0.336
19,TCCTCTCCTTGGGTTCTAACCTGTTGCTT (site TCCTCTCCTAA),0.118
20,TCCTCTCCTTGGGTTCTAACCTGTTGCTT (site TGCCCTCCTAA),0.0451
21,TCCTGGCCTTGGGTTCTAACCTGTTGCCT (site TCCAGGGCTAG),0.209
22,TCCTGGCCTTGGGTTCTAACCTGTTGCCT (site TCCTGGCCTAG),0.117

row,Sequence,recombinant barcode read abundance (log10)
1,TCCTGTCCTTGGGTTCTAACCTGTTGCAT (site TCCTGTACTAG),0.0187
2,TCCTGTCCTTGGGTTCTAACCTGTTGCAT (site TCCTGTCCTAT),0.467
3,TCCTGTGCTTGGGTTCTAACCTGTTGCCT (site TCCTGTGCTAG),0.254
4,TCCTGTGCTTGGGTTCTAACCTGTTGCCT (site TTCTATGCTAG),0.00897
5,TCCTTCTCTTGGGTTCTAACCTGTTGCCT (site GAGGGGACTCT),0.103
6,TCCTTCTCTTGGGTTCTAACCTGTTGCCT (site TCCTTCTCTAG),0.601
7,TCGAACCCTTGGGTTCTAACCTGTTGCCT (site TCGAAACCTAG),0.36
8,TCGAACCCTTGGGTTCTAACCTGTTGCCT (site TCGAACCCTAG),0.639
9,TCGAACCCTTGGGTTCTAACCTGTTGCCT (site TCGAAGCCTAG),0.115
10,TCGAACCCTTGGGTTCTAACCTGTTGCCT (site TCGAATCCTAG),0.151
11,TCGAACGCTTGGGTTCTAACCTGTTGCTT (site CACGGGACTCT),0.115
12,TCGAACGCTTGGGTTCTAACCTGTTGCTT (site TCGAACGCTAA),0.135
13,TCGACCACTTGGGTTCTAACCTGTTGCCT (site TATACCACTAG),0.0386
14,TCGACCACTTGGGTTCTAACCTGTTGCCT (site TCGACCACTAG),0.115
15,TCGAGGCCTTGGGTTCTAACCTGTTGCGG (site TAGAGCCCTCC),0.724
16,TCGAGGCCTTGGGTTCTAACCTGTTGCGG (site TCGAGGCCTCC),1.34
17,TCGAGTCCTTGGGTTCTAACCTGTTGCCA (site TCGAGTCCTTG),0.084
18,TCGAGTCCTTGGGTTCTAACCTGTTGCCA (site TGGTGTCCTTG),0
19,TCGATCACTTGGGTTCTAACCTGTTGCCT (site TCGATCACTAG),0.738
20,TCGATCACTTGGGTTCTAACCTGTTGCCT (site TCGATTACTAG),0.0188
